Structures are written as SMILES. Counter-ions that a name gives are not always drawn.

The melting point is the temperature, or range, at which the solid turns liquid.

As to `COc1ccc(Sc2ccc(NC(=N)N)cc2)cc1` [Example 2, N-[4-(4-Methoxy-phenylsulfanyl)-phenyl]-guanidine], the melting point was in the range of 140 to 141 °C. `Clc1ccc(Sc2ccc(CNC3=NCCN3)cc2)cc1` (as salt: hydrochloride) [Compound 9, [4-(4-Chloro-phenylsulfanyl)-benzyl]-(4,5-dihydro-1H-imidazol-2-yl)-amine] gave a melting point of 127 to 130 °C. For `Clc1ccc(Sc2ccc(NC3=NCCCC3)cc2)cc1` (as salt: hydrochloride) [Compound 73, [4-(4-Chloro-phenylsulfanyl)-phenyl]-(3,4,5,6-tetrahydro-pyridin-2-yl)-amine] the value was 148 to 152 °C. For `COc1ccc(Sc2ccc(NC3=NCCN3)cc2)cc1` (as salt: hydrochloride) [Compound 5, (4,5-Dihydro-1H-imidazol-2-yl)-[4-(4-methoxy-phenylsulfanyl)-phenyl]-amine] the value was 149 to 150 °C.

These data come from patent publication US7078401B2, “Thiophenylaminoimidazolines as IP antagonists” (Roche Palo Alto LLC, priority 2003, dated 2006).
